Our source for the IC50 values is US8440710B2, “HSL inhibitors useful in the treatment of diabetes” (Hoffmann-La Roche Inc., priority 2009, dated 2013).

The experiment deals with T1, human HSL (Homo sapiens, UniProt Q05469).
T1 construct: generate a full length human HSL ORF with a 3′-His6 tag; made in house; host or cells: High 5 insect cells (baculovirus, pFast-BAC)
T1 sequence (Q05469 1-1076): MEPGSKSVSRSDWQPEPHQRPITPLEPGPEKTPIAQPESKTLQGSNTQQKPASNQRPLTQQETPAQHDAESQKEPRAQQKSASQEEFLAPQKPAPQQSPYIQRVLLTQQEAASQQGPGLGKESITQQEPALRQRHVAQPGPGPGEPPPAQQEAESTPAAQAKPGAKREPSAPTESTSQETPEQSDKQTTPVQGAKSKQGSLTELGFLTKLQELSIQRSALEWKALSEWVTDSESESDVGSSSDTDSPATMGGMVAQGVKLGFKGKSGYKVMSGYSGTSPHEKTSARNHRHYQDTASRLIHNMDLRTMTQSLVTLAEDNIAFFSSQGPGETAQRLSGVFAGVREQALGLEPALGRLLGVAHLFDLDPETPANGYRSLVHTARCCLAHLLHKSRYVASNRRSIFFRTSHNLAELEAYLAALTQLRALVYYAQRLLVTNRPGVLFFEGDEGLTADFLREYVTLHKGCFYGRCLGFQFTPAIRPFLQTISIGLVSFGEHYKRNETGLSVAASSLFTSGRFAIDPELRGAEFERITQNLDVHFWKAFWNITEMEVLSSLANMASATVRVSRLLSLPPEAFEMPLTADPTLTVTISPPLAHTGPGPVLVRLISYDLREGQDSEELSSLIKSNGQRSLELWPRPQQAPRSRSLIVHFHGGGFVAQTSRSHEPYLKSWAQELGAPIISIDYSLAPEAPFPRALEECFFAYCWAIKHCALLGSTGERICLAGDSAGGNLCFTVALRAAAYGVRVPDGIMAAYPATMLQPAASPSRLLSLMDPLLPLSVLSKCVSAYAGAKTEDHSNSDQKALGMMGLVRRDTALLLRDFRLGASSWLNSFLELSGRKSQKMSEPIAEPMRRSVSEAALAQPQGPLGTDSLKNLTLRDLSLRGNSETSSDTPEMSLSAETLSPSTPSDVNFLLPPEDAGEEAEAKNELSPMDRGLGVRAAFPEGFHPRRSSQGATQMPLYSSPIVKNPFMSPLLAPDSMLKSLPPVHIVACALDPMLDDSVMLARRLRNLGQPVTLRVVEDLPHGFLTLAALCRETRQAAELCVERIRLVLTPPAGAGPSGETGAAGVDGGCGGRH
Briefly: Human Hormone-Sensitive Lipase (HSL) enzyme inhibition assay (colorimetric, DMPT substrate). Particulars: human full length HSL-His6, 2,3-dimercapto-1-propanol tributyrate substrate, 37° C. 20 minutes, absorbance at 405 nm; read-out: HSL hum IC50. The experiment is classed as biochemical. The method in brief: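 Full-length human HSL with C-terminal His6, expressed in baculovirus-infected High 5 cells and Ni-NTA purified, was added (15 ug/ml stock) to 1.5 mM DMPT in 100 mM MOPS pH 7.2, 0.2 mg/ml fatty acid-free BSA containing compound. After 20 min at 37 °C, DTNB with SDS/Triton X-100 was added; A405 read after 15 min at RT.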

SMILES strings stand for the structures.

Regarding `CC[C@]1(O)CC[C@]2(CCN(c3ccc(OC(F)(F)F)cc3)C2=O)CC1` [Example 60, (5α,8α)-8-Ethyl-8-hydroxy-2-(4-trifluoromethoxy-phenyl)-2-aza-spiro[4.5]decan-1-one], the 50% inhibitory concentration (IC50) amounted to 30 nM.
As to `CC[C@]1(O)CC[C@@]2(CCN(c3ccc(OC(F)(F)F)cc3)C2=O)CC1` [Example 61, (5α,8β)-8-Ethyl-8-hydroxy-2-(4-trifluoromethoxy-phenyl)-2-aza-spiro[4.5]decan-1-one], the IC50 amounted to 2090 nM.
The result for `O=C1N(c2ccc(OC(F)(F)F)cc2)CC[C@]12CC[C@@](O)(Cc1ccccc1)CC2` [Example 62, (5α,8α)-8-Benzyl-8-hydroxy-2-(4-trifluoromethoxy-phenyl)-2-aza-spiro[4.5]decan-1-one] reads 20 nM.
The result for `O=C1N(c2ccc(OC(F)(F)F)cc2)CC[C@]12CC[C@](O)(Cc1ccccc1)CC2` [Example 63, (5α,8β)-8-Benzyl-8-hydroxy-2-(4-trifluoromethoxy-phenyl)-2-aza-spiro[4.5]decan-1-one] reads 600 nM; that for `C=CCC[C@]1(O)CC[C@]2(CCN(c3ccc(OC(F)(F)F)cc3)C2=O)CC1` [Example 64, (5α,8α)-8-But-3-enyl-8-hydroxy-2-(4-trifluoromethoxy-phenyl)-2-aza-spiro[4.5]decan-1-one], 30 nM.
The result for `C=CCC[C@]1(O)CC[C@@]2(CCN(c3ccc(OC(F)(F)F)cc3)C2=O)CC1` [Example 65, (5α,8β)-8-But-3-enyl-8-hydroxy-2-(4-trifluoromethoxy-phenyl)-2-aza-spiro[4.5]decan-1-one] reads 440 nM; that for `CCCC[C@]1(O)CC[C@]2(CCN(c3ccc(OC(F)(F)F)cc3)C2=O)CC1` [Example 66, (5α,8α)-8-Butyl-8-hydroxy-2-(4-trifluoromethoxy-phenyl)-2-aza-spiro[4.5]decan-1-one], 30 nM; that for `CCCC[C@]1(O)CC[C@@]2(CCN(c3ccc(OC(F)(F)F)cc3)C2=O)CC1` [Example 67, (5α,8β)-8-Butyl-8-hydroxy-2-(4-trifluoromethoxy-phenyl)-2-aza-spiro[4.5]decan-1-one], 11100 nM.
Turning to `CC(C)[C@]1(O)CC[C@]2(CCN(c3ccc(OC(F)(F)F)cc3)C2=O)CC1` [Example 68, (5α,8α)-8-Hydroxy-8-isopropyl-2-(4-trifluoromethoxy-phenyl)-2-aza-spiro[4.5]decan-1-one], the IC50 came to 30 nM.
As for `CC(C)[C@]1(O)CC[C@@]2(CCN(c3ccc(OC(F)(F)F)cc3)C2=O)CC1` [Example 69, (5α,8β)-8-Hydroxy-8-isopropyl-2-(4-trifluoromethoxy-phenyl)-2-aza-spiro[4.5]decan-1-one], the 50% inhibitory concentration (IC50) worked out at 560 nM.
The figure for `O=C1N(c2ccc(OC(F)(F)F)cc2)CC[C@]12CC[C@@](O)(C1CC1)CC2` [Example 70, (5α,8α)-8-Cyclopropyl-8-hydroxy-2-(4-trifluoromethoxy-phenyl)-2-aza-spiro[4.5]decan-1-one] is 130 nM; for `COCC#C[C@]1(O)CC[C@]2(CCN(c3ccc(OC(F)(F)F)cc3)C2=O)CC1` [Example 71, (5α,8α)-8-Hydroxy-8-(3-methoxy-prop-1-ynyl)-2-(4-trifluoromethoxy-phenyl)-2-aza-spiro[4.5]decan-1-one] it is 40 nM.
The result for `COCC#C[C@]1(O)CC[C@@]2(CCN(c3ccc(OC(F)(F)F)cc3)C2=O)CC1` [Example 72, (5α,8β)-8-Hydroxy-8-(3-methoxy-prop-1-ynyl)-2-(4-trifluoromethoxy-phenyl)-2-aza-spiro[4.5]decan-1-one] reads 710 nM; that for `C[C@]1(O)CC[C@]2(CCN(c3ccc(C4CC4)cc3)C2=O)CC1` [Example 73, (5α,8α)-2-(4-Cyclopropyl-phenyl)-8-hydroxy-8-methyl-2-aza-spiro[4.5]decan-1-one], 150 nM; that for `C[C@]1(O)CC[C@@]2(CCN(c3ccc(C4CC4)cc3)C2=O)CC1` [Example 74, (5α,8β)-2-(4-Cyclopropyl-phenyl)-8-hydroxy-8-methyl-2-aza-spiro[4.5]decan-1-one], 800 nM.
The figure for `CCC[C@]1(O)CC[C@]2(CCN(c3ccc(C4CC4)cc3)C2=O)CC1` [Example 75, (5α,8α)-2-(4-Cyclopropyl-phenyl)-8-hydroxy-8-propyl-2-aza-spiro[4.5]decan-1-one] is 30 nM; for `CCC[C@]1(O)CC[C@@]2(CCN(c3ccc(C4CC4)cc3)C2=O)CC1` [Example 76, (5α,8β)-2-(4-Cyclopropyl-phenyl)-8-hydroxy-8-propyl-2-aza-spiro[4.5]decan-1-one] it is 190 nM.
For `C[C@]1(O)CC[C@]2(CCN(c3ccc(CC(F)(F)F)cc3)C2=O)CC1` [Example 77, (5α,8α)-8-Hydroxy-8-methyl-2-[4-(2,2,2-trifluoro-ethyl)-phenyl]-2-aza-spiro[4.5]decan-1-one], the IC50 amounted to 50 nM.
The result for `C[C@]1(O)CC[C@@]2(CCN(c3ccc(CC(F)(F)F)cc3)C2=O)CC1` [Example 78, (5α,8β)-8-Hydroxy-8-methyl-2-[4-(2,2,2-trifluoro-ethyl)-phenyl]-2-aza-spiro[4.5]decan-1-one] reads 900 nM; that for `CC[C@]1(O)CC[C@]2(CCN(c3ccc(CC(F)(F)F)cc3)C2=O)CC1` [Example 79, (5α,8α)-8-Ethyl-8-hydroxy-2-[4-(2,2,2-trifluoro-ethyl)-phenyl]-2-aza-spiro[4.5]decan-1-one], 30 nM.
The result for `CC[C@]1(O)CC[C@@]2(CCN(c3ccc(CC(F)(F)F)cc3)C2=O)CC1` [Example 80, (5α,8β)-8-Ethyl-8-hydroxy-2-[4-(2,2,2-trifluoro-ethyl)-phenyl]-2-aza-spiro[4.5]decan-1-one] reads 910 nM; that for `CCC[C@]1(O)CC[C@]2(CCN(c3ccc(CC(F)(F)F)cc3)C2=O)CC1` [Example 81, (5α,8α)-8-Hydroxy-8-propyl-2-[4-(2,2,2-trifluoro-ethyl)-phenyl]-2-aza-spiro[4.5]decan-1-one], 20 nM; that for `CCC[C@]1(O)CC[C@@]2(CCN(c3ccc(CC(F)(F)F)cc3)C2=O)CC1` [Example 82, (5α,8β)-8-Hydroxy-8-propyl-2-[4-(2,2,2-trifluoro-ethyl)-phenyl]-2-aza-spiro[4.5]decan-1-one], 460 nM.
Consider `CCCc1ccc(N2CC[C@]3(CC[C@@](O)(CC)CC3)C2=O)cc1` [Example 83, (5α,8α)-8-Ethyl-8-hydroxy-2-(4-propyl-phenyl)-2-aza-spiro[4.5]decan-1-one], for which the IC50 is 70 nM.
The result for `CCCc1ccc(N2CC[C@]3(CC[C@](O)(CC)CC3)C2=O)cc1` [Example 84, (5α,8β)-8-Ethyl-8-hydroxy-2-(4-propyl-phenyl)-2-aza-spiro[4.5]decan-1-one] reads 4300 nM.
Consider `O=C1N(c2ccc(OCC(F)(F)F)cc2)CC[C@]12CC[C@@H](O)CC2` [Example 85, (5α,8β)-8-Hydroxy-2-[4-(2,2,2-trifluoro-ethoxy)-phenyl]-2-aza-spiro[4.5]decan-1-one], for which the IC50 is 2290 nM.
The result for `C[C@]1(O)CC[C@]2(CCN(c3ccc(OCC(F)(F)F)cc3)C2=O)CC1` [Example 86, (5α,8α)-8-Hydroxy-8-methyl-2-[4-(2,2,2-trifluoro-ethoxy)-phenyl]-2-aza-spiro[4.5]decan-1-one] reads 130 nM.
